The text below walks through data of PMC2442905 (British Journal of Pharmacology, 2008).

Broadly, the IC50 is the concentration at which inhibition is half-maximal. By Cmax is commonly meant the maximum level reached in the sampled fluid or tissue.

Where two headings read alike, the source gives them in different places.

The nature of data set [1]: Drug concentrations in plasma of guinea-pigs. In kind it is in vivo. The following applies: anaesthetized guinea-pig.
Data set [2] deals with anaesthetized guinea-pigs (QTc interval of the ECG). The experiment in a line: Anaesthetized guinea-pig QT. In kind it is in vivo. Conditions: for increase (change) of baseline-corrected QTc over vehicle / mean baseline-corrected QTc: highest dose level; for increase (change) of baseline-corrected QTc over vehicle / mean baseline-corrected QTc / effect on QT/QTc interval in the guinea-pig model (in words): i.v. infusion over 10 min; for QTc increase of 5% over vehicle (risk signal): low, medium and high doses.

Data set [3] deals with T1, hERG potassium channels stably expressed in CHO-K1 cells (Homo sapiens, UniProt Q12809). In words: cell-based. The following applies: 25 °C, 400-ms pulse protocol.
T1 sequence (Q12809 whole entry): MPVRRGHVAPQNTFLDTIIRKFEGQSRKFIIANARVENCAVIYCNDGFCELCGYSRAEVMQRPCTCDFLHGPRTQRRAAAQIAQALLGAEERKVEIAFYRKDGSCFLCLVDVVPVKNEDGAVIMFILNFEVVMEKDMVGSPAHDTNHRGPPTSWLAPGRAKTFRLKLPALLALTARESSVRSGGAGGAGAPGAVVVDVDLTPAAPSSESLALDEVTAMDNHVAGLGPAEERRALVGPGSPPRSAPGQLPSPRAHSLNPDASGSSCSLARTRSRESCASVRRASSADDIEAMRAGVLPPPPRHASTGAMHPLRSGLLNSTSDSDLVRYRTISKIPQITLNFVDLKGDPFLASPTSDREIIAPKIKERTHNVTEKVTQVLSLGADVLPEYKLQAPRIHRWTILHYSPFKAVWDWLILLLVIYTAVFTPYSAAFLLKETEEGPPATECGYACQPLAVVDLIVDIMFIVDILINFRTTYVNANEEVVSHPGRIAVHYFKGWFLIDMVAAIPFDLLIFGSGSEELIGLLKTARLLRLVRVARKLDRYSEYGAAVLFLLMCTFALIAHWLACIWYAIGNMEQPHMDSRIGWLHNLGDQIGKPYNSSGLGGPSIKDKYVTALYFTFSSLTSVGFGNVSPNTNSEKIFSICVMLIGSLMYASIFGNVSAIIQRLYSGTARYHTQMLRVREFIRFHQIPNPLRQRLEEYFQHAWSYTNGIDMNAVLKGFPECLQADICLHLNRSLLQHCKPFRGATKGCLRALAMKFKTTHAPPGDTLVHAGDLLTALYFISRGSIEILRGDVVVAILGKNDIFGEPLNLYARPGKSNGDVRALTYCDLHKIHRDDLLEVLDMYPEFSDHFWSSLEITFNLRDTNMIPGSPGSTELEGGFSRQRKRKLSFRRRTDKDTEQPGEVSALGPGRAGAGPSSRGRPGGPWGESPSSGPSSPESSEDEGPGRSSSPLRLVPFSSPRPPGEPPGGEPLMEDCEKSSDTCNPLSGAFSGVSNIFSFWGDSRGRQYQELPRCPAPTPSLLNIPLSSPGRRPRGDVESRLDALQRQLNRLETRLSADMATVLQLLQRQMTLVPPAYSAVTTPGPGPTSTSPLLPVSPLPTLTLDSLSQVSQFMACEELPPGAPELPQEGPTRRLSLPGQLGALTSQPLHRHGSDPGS
For data set [4], the target named is T1, hERG potassium channels stably expressed in CHO-K1 cells. The following applies: for hERG inhibition (in words): group C drugs: at the highest concentration permitted by solubility. A general note: hERG is a cardiac potassium channel; its block is linked to QT prolongation.
The subject of data set [5] is plasma proteins. Conditions: human; cited from earlier work.
The conditions of data set [6]: read-out: Human plasma Cmax; single 400 mg dose in humans; cited from earlier work.
Data set [7] deals with anaesthetized guinea-pigs. The experiment in a line: Heart rate and mean blood pressure recordings in anaesthetized guinea-pigs. In kind it is in vivo, guinea-pig. The following applies: limited the maximum dose to 3 mg kg^−1.

For the compound `C[C@@H]1CN(c2c(F)c(N)c3c(=O)c(C(=O)O)cn(C4CC4)c3c2F)C[C@H](C)N1` [Sparfloxacin], the Peak plasma level in data set [1] (3 mg kg^−1 i.v. over 10 min) is recorded as 23.5±4.2 (3) μm; in data set [1] (10 mg kg^−1 i.v. over 10 min), 80.4±9.1 (5) μm; in data set [1] (30 mg kg^−1 i.v. over 10 min), 159.4±22.4 (4) μm. Further, the “increase (change) of baseline-corrected QTc over vehicle” value (“increase (change)” below) in data set [2] is recorded as 19.6%. In data set [2], the “mean baseline-corrected QTc” value is recorded as 20.0%. The compound also yielded an IC50 in data set [3] of 24 µM. For the same compound, the “Free safety margin (hERG IC50/ free Cmax)” value (shortened to “Free safety margin”) in data set [4] (human, pH 7.4) was 3.757. For the same compound, the “Total safety margin (hERG IC50/ total Cmax)” value (from here on “Total safety margin”) in data set [4] (human, pH 7.4) is recorded as 2.477.

As for `CC1(C)S[C@@H]2[C@H](NC(=O)[C@H](N)c3ccc(O)cc3)C(=O)N2[C@H]1C(=O)O` [Amoxicillin], the values for the Peak plasma level in data set [1] (3 mg kg^−1 i.v. over 10 min), in data set [1] (10 mg kg^−1 i.v. over 10 min) and in data set [1] (20 mg kg^−1 i.v. over 10 min) were 4.8±0.5 (5) μm, 14.6±1.4 (4) μm and 30.3±2.5 (5) μm, respectively.

Take `O=C1Cc2cc(CCN3CCN(c4nsc5ccccc45)CC3)c(Cl)cc2N1` [Ziprasidone]: the Peak plasma level is reported as 1.1±0.2 (4) μm in data set [1] (0.1 mg kg^−1 i.v. over 10 min), 1.2±0.1 (2) μm in data set [1] (0.3 mg kg^−1 i.v. over 10 min) and 4.0±2.2 (2) μm in data set [1] (1 mg kg^−1 i.v. over 10 min). Moreover, the “Free safety margin” value in data set [4] (human, pH 7.4) came to 286.45. For the same compound, in data set [4] (human, pH 7.4), the “Total safety margin” value is reported as 0.573.

Turning to `C[C@H](CS)C(=O)N1CCC[C@H]1C(=O)O` [Captopril], the Peak plasma level in data set [1] (3 mg kg^−1 i.v. over 10 min) is listed as 57.8±1.6 (2) μm. For the same compound, in data set [1] (10 mg kg^−1 i.v. over 10 min), the Peak plasma level was 142±15 (2) μm. Besides, the Peak plasma level in data set [1] (30 mg kg^−1 i.v. over 10 min) was 313±112 (2) μm. Moreover, in data set [2], the “increase (change)” value is −7.3%, the “mean baseline-corrected QTc” value is given as −6.0%, the “effect on QT/QTc interval in the guinea-pig model (in words)” value is on record as “QTc actually dropped below vehicle” and the “QTc increase of 5% over vehicle (risk signal)” value (“QTc increase of 5% over vehicle” below) is “did not reach the 5% increase of QTc”. The “hERG inhibition (in words)” value in data set [4] is “no hERG inhibition was observed”.

With `CC(C)NCC(O)COc1cccc2ccccc12` (stereo not shown) [Propranolol], the Peak plasma level was 0.50±0.03 (3) μm in data set [1] (0.3 mg kg^−1 i.v. over 10 min), 1.84±0.41 (3) μm in data set [1] (1 mg kg^−1 i.v. over 10 min) and 4.65±0.40 (5) μm in data set [1] (3 mg kg^−1 i.v. over 10 min). Moreover, the “QTc increase of 5% over vehicle” value in data set [2] is “did not reach the 5% increase of QTc”. In addition, in data set [5], the Protein binding is 85%.

As to `O=C(CCCN1CCC(O)(c2ccc(Cl)cc2)CC1)c1ccc(F)cc1` [Haloperidol], the Protein binding in data set [5] is reported as 90%. Also, in data set [4] (human, pH 7.4), the “Free safety margin” value is given as 1.4 and the “Total safety margin” value was 0.1.

Consider `COc1c(N2C[C@@H]3CCCN[C@@H]3C2)c(F)cc2c(=O)c(C(=O)O)cn(C3CC3)c12` [Moxifloxacin], for which the Cmax in data set [6] was roughly 7 µM. The Peak plasma level in data set [1] (1 mg kg^−1 i.v. over 10 min) was 2.08±0.28 (4) μm. In data set [1] (5 mg kg^−1 i.v. over 10 min), the Peak plasma level was 30.6±7.2 (4) μm. In addition, the Peak plasma level in data set [1] (10 mg kg^−1 i.v. over 10 min) was 80.5±4.0 (5) μm. In data set [2], the “increase (change)” value turned out to be 16.8%, the “mean baseline-corrected QTc” value came out at 18.3% and the “effect on QT/QTc interval in the guinea-pig model (in words)” value is on record as “dose-dependent QTc prolongation”.

For `CC(C)NCC(O)c1ccc(NS(C)(=O)=O)cc1` (racemic) [D,L-Sotalol], the values for the Peak plasma level in data set [1] (1 mg kg^−1 i.v. over 10 min), in data set [1] (3 mg kg^−1 i.v. over 10 min) and in data set [1] (10 mg kg^−1 i.v. over 10 min) were 18.2±1.5 (5) μm, 41.3±4.8 (4) μm and 145.9±16.6 (5) μm, respectively.

On to `CC(C)(C)c1ccc(C(O)CCCN2CCC(C(O)(c3ccccc3)c3ccccc3)CC2)cc1` (stereo not shown) [Terfenadine], for which, in data set [7], the “haemodynamic effects (in words)” value was “marked bradycardia and resultant hypotension”.

Regarding `C=C[C@H]1C[N@@]2CC[C@H]1C[C@@H]2[C@@H](O)c1ccnc2ccc(OC)cc12` [Quinidine], the results for the Peak plasma level in data set [1] (3 mg kg^−1 i.v. over 10 min) and in data set [1] (10 mg kg^−1 i.v. over 10 min) were 6.2±0.08 (3) μm and 27.8±8.0 (5) μm, respectively.

Take `CC/C(=C(\c1ccccc1)c1ccc(OCCN(C)C)cc1)c1ccccc1` [Tamoxifen]: the Peak plasma level is on record as 3.8±0.8 (4) μm in data set [1] (3 mg kg^−1 i.v. over 10 min), 10.5±2.1 (5) μm in data set [1] (10 mg kg^−1 i.v. over 10 min) and 60.0±20.0 (5) μm in data set [1] (30 mg kg^−1 i.v. over 10 min). The “mean baseline-corrected QTc” value in data set [2] came to 8.4%.

As to `CC(=O)Oc1ccccc1C(=O)O` [Aspirin], the Peak plasma level was 31.1±2.3 (5) μm in data set [1] (1 mg kg^−1 i.v. over 10 min), 74.6±2.1 (5) μm in data set [1] (3 mg kg^−1 i.v. over 10 min) and 468±78 (4) μm in data set [1] (10 mg kg^−1 i.v. over 10 min). For the same compound, in data set [2], the “QTc increase of 5% over vehicle” value is “did not reach the 5% increase of QTc”. In data set [3], this compound came in with an IC50 greater than 100000 µM. For the same compound, the “hERG inhibition (in words)” value in data set [4] is listed as “no hERG inhibition was observed”. Also, the “Free safety margin” value in data set [4] (hERG IC50 divided by human free plasma Cmax) is greater than 4512; in data set [4] (hERG IC50 divided by human free plasma Cmax, listed as aspirin) it was “above 300”.

Take `COc1cc(N)c(Cl)cc1C(=O)NC1CCN(CCCOc2ccc(F)cc2)CC1OC` (stereo not shown) [Cisapride]: the values for the Peak plasma level in data set [1] (0.1 mg kg^−1 i.v. over 10 min), in data set [1] (0.3 mg kg^−1 i.v. over 10 min) and in data set [1] (1 mg kg^−1 i.v. over 10 min) were 0.037±0.023 (4) μm, 0.129±0.032 (4) μm and 0.496±0.085 (5) μm, respectively.

As to `COc1ccc(CCN(C)CCCC(C#N)(c2ccc(OC)c(OC)c2)C(C)C)cc1OC` (stereo not shown) [Verapamil], the “QTc increase of 5% over vehicle” value in data set [2] is on record as “did not reach the 5% increase of QTc”.

As to `O=C(CCCN1CC=C(n2c(=O)[nH]c3ccccc32)CC1)c1ccc(F)cc1` [Droperidol], the Peak plasma level was 0.55±0.07 (3) μm in data set [1] (0.03 mg kg^−1 i.v. over 10 min), 0.62±0.05 (5) μm in data set [1] (0.1 mg kg^−1 i.v. over 10 min) and 1.21±0.34 (5) μm in data set [1] (0.3 mg kg^−1 i.v. over 10 min).
